{
  "source": "patent US20240216329A1",
  "about": "“PUTRESCINE TOPICAL FORMULATIONS” (VIVIER CANADA INC., priority 2017, published 2024)",
  "origin": "cited, not measured here",
  "key": {"[1]": {"system": "collagen cross-linking (fibroblast tissue transglutaminase)", "conditions": "in vitro and in vivo"}, "scar fibroblasts": {"system": "scar fibroblasts", "conditions": "human harvested scars"}},
  "data": [
    {"molecule": "NCCCCN", "note": "[putrescine, 1,4-diaminobutane]", "values": [
      {"measurement": "barrier function of the epidermis", "setting": "epidermis of eroded skin; eroded skin, topical", "value": "increasing its barrier function"},
      {"measurement": "thickness of the stratum lucidum / inner strata of epidermis", "setting": "epidermis of eroded skin; stratum lucidum in animals, inner strata of human epidermis", "value": "increasing"},
      {"measurement": "collagen cross-linking", "setting": "[1]", "value": "reduce collagen cross-linking"},
      {"measurement": "apoptosis of scar fibroblasts", "setting": "scar fibroblasts", "value": "increase in apoptosis of scar fibroblasts"}
    ]}
  ]
}
